In patent US20250042895A1, “INHIBITORS OF ULK1 AND METHODS OF USE” (H. LEE MOFFITT CANCER CENTER AND RESEARCH INSTITUTE, INC., priority 2021, published 2025):

Tests used:
ULK1 kinase domain = molecular target: T1, ULK1 kinase domain (Homo sapiens, UniProt O75385); experiment: Differential scanning fluorimetry (thermal shift); type: binding; conditions: 2 μM ULK1 kinase domain, 50 μM compound, vs DMSO reference
T1 construct: The protein expression construct of ULK1 kinase domain (1-283) was cloned; 6His-Sumo (N, cleaved yes); made in house; host or cells: E. coli BL21 star, co-expressed with lambda phosphatase
T1 sequence (O75385 1-283): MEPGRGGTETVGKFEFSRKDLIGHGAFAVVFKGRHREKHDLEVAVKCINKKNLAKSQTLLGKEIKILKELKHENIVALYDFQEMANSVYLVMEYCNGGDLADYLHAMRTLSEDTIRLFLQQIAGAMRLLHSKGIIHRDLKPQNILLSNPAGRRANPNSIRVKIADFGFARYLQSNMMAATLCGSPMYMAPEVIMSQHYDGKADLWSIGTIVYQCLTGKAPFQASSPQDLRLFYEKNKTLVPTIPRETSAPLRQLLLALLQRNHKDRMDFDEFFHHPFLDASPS

ULK1 kinase = molecular target: T2, ULK1 kinase (Homo sapiens, UniProt O75385); experiment: Radiometric HotSpot kinase assay (Reaction Biology); type: biochemical; conditions: activity-based ULK1 kinase assay
T2 construct: purchased Reaction Biology
T2 sequence (O75385 1-1050): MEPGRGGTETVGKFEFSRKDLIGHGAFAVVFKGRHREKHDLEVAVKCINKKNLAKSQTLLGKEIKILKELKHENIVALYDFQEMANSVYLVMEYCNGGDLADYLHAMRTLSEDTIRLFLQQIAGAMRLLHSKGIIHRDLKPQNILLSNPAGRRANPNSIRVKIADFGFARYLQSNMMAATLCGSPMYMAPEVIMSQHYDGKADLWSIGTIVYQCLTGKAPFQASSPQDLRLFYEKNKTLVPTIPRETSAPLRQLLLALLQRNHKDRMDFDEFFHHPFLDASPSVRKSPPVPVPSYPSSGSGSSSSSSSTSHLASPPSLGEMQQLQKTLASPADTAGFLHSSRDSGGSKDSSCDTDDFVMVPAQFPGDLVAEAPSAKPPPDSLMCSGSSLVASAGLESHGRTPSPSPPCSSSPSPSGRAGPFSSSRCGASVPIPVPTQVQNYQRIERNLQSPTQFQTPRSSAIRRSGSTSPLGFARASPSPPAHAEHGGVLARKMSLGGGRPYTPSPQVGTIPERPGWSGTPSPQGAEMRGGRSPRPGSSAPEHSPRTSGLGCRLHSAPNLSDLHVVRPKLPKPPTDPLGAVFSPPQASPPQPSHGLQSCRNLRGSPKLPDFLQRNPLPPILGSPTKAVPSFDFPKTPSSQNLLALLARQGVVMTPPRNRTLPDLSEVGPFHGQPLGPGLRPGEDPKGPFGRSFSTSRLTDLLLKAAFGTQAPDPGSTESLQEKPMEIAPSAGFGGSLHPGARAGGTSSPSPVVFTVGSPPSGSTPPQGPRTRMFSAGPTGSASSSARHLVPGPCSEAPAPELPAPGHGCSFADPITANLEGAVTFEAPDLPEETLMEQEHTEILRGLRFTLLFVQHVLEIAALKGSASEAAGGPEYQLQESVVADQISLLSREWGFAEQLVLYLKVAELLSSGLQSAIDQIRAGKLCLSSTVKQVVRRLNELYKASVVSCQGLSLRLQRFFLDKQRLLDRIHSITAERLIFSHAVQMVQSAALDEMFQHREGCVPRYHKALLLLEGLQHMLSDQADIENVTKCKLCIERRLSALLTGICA

GST-ULK1 = molecular target: T3, GST-ULK1 (Homo sapiens, UniProt O75385); experiment: LanthaScreen ULK1 inhibitor assay; type: biochemical; conditions: 5 nM GST-ULK1, 30 nM tracer, 20 μM ATP, 1 hr room temperature
T3 sequence (O75385 1-1050): T2 sequence (O75385 1-1050)

Structure (SMILES): CS(=O)(=O)NC1CCN(C(=O)c2cc(-c3cnc4[nH]c(-c5ccc(F)cc5)cc4c3)cs2)C1 (stereo not shown) [Compound 9, N-(1-(4-(2-(4-Fluorophenyl)-1H-pyrrolo[2,3-b]pyridin-5-yl)thiophene-2-carbonyl)pyrrolidin-3-yl)methanesulfonamide]
- ΔTm at 50 µM (ULK1 kinase domain): 1.29 °C

Structure (SMILES): O=C(c1cc(-c2cnc3[nH]c(-c4ccc(F)cc4)cc3c2)cs1)N1CCC(NC(=O)C(F)(F)F)C1 (stereo not shown) [Compound 24, 2,2,2-Frifluoro-N-(1-(4-(2-(4-fluorophenyl)-1H-pyrrolo[2,3-b]pyridin-5-yl)thiophene-2-carbonyl)pyrrolidin-3-yl)acetamide]
- ΔTm at 50 µM (ULK1 kinase domain): 0.4 °C

Structure (SMILES): CS(=O)(=O)N1CCN(C(=O)c2cc(-c3cnc4[nH]c(-c5ccc(F)cc5)cc4c3)cs2)CC1 [Compound 29, (4-(2-(4-Fluorophenyl)-1H-pyrrolo[2,3-b]pyridin-5-yl)thiophen-2-yl)(4-(methyl-sulfonyl)piperazin-1-yl)methanone]
- IC50 (ULK1 kinase): 938 nM
- IC50 (GST-ULK1): 1230 nM
- ΔTm at 50 µM (ULK1 kinase domain): 0.9 °C

Structure (SMILES): CC(C)(C)OC(=O)N1CCC(c2cc3cc(-c4csc(C(=O)NCC(F)(F)F)c4)cnc3[nH]2)CC1 [Compound 40, tert-Butyl 4-(5-(5-((2,2,2-trifluoroethyl)carbamoyl)thiophen-3-yl)-1H-pyrrolo[2,3-b]-pyridin-2-yl)piperidine-1-carboxylate]
- ΔTm at 50 µM (ULK1 kinase domain): 1.63 °C

Structure (SMILES): CC(C)(C)OC(=O)N1CCC=C(c2cc3cc(-c4csc(C(=O)NCC(F)(F)F)c4)cnc3[nH]2)C1 [Compound 41, tert-Butyl 5-(5-(5-((2,2,2-trifluoroethyl)carbamoyl)thiophen-3-yl)-1H-pyrrolo[2,3-b]-pyridin-2-yl)-3,6-dihydropyridine-1(2H)-carboxylate]
- IC50 (ULK1 kinase): 333 nM
- IC50 (GST-ULK1): 75 nM
- ΔTm at 50 µM (ULK1 kinase domain): 9.89 °C

Structure (SMILES): CC(C)(C)OC(=O)N1CCCC(c2cc3cc(-c4csc(C(=O)NCC(F)(F)F)c4)cnc3[nH]2)C1 (stereo not shown) [Compound 43, tert-Butyl 3-(5-(5-((2,2,2-trifluoroethyl)carbamoyl)thiophen-3-yl)-1H-pyrrolo[2,3-b]-pyridin-2-yl)piperidine-1-carboxylate]
- ΔTm at 50 µM (ULK1 kinase domain): 4.2 °C

Structure (SMILES): O=C(NC[C@@H](O)CO)c1cccc(-c2cnc3[nH]c(-c4ccc(F)cc4)cc3c2)c1 [Compound 48, (R)—N-(2,3-Dihydroxypropyl)-3-(2-(4-fluorophenyl)-1H-pyrrolo[2,3-b]pyridin-5-yl)benzamide]
- IC50 (ULK1 kinase): 261 nM
- IC50 (GST-ULK1): 475 nM
- ΔTm at 50 µM (ULK1 kinase domain): 4.52 °C

Structure (SMILES): O=C(NC(CO)CO)c1cccc(-c2cnc3[nH]c(-c4ccc(F)cc4)cc3c2)c1 [Compound 49, N-(1,3-Dihydroxypropan-2-yl)-3-(2-(4-fluorophenyl)-1H-pyrrolo[2,3-b]pyridin-5-yl)benzamide]
- IC50 (ULK1 kinase): 341 nM
- IC50 (GST-ULK1): 543 nM
- ΔTm at 50 µM (ULK1 kinase domain): 5.11 °C

Structure (SMILES): O=C(NCC(O)C(F)(F)F)c1cccc(-c2cnc3[nH]c(-c4ccc(F)cc4)cc3c2)c1 (stereo not shown) [Compound 50, 3-(2-(4-Fluorophenyl)-1H-pyrrolo[2,3-b]pyridin-5-yl)-N-(3,3,3-trifluoro-2-hydroxy-propyl)benzamide]
- IC50 (ULK1 kinase): 91 nM
- IC50 (GST-ULK1): 86 nM
- ΔTm at 50 µM (ULK1 kinase domain): 4.4 °C

Structure (SMILES): O=C(NC[C@H](O)CO)c1cccc(-c2cnc3[nH]c(-c4ccc(F)cc4)cc3c2)c1 [Compound 51, (S)—N-(2,3-Dihydroxypropyl)-3-(2-(4-fluorophenyl)-1H-pyrrolo[2,3-b]pyridin-5-yl)-benzamide]
- IC50 (ULK1 kinase): 184 nM
- IC50 (GST-ULK1): 387 nM
- ΔTm at 50 µM (ULK1 kinase domain): 4.76 °C

Structure (SMILES): O=C(NC[C@@H](O)CO)c1cccc(-c2cnc3[nH]c(-c4ccc(F)cc4)cc3c2)n1 [Compound 52, (R)—N-(2,3-Dihydroxypropyl)-6-(2-(4-fluorophenyl)-1H-pyrrolo[2,3-b]pyridin-5-yl)-picolinamide]
- IC50 (ULK1 kinase): 45 nM
- IC50 (GST-ULK1): 106 nM
- ΔTm at 50 µM (ULK1 kinase domain): 8.86 °C

Structure (SMILES): CC[C@H](CO)NC(=O)c1cccc(-c2cnc3[nH]c(-c4ccc(F)cc4)cc3c2)c1 [Compound 53, (R)-3-(2-(4-Fluorophenyl)-1H-pyrrolo[2,3-b]pyridin-5-yl)-N-(1-hydroxybutan-2-yl)benzamide]
- IC50 (ULK1 kinase): 66 nM
- IC50 (GST-ULK1): 94 nM
- ΔTm at 50 µM (ULK1 kinase domain): 3.11 °C

Structure (SMILES): CC[C@@H](CO)NC(=O)c1cccc(-c2cnc3[nH]c(-c4ccc(F)cc4)cc3c2)c1 [Compound 54, (S)-3-(2-(4-Fluorophenyl)-1H-pyrrolo[2,3-b]pyridin-5-yl)-N-(1-hydroxybutan-2-yl)benzamide]
- IC50 (ULK1 kinase): 1470 nM
- IC50 (GST-ULK1): 5850 nM
- ΔTm at 50 µM (ULK1 kinase domain): 1.62 °C

Structure (SMILES): O=C(NC(CO)CO)c1cccc(-c2cnc3[nH]c(-c4ccc(F)cc4)cc3c2)n1 [Compound 55, N-(1,3-Dihydroxypropan-2-yl)-6-(2-(4-fluorophenyl)-1H-pyrrolo[2,3-b]pyridin-5-yl)picolinamide]
- IC50 (ULK1 kinase): 44 nM
- IC50 (GST-ULK1): 74 nM
- ΔTm at 50 µM (ULK1 kinase domain): 8.56 °C

Structure (SMILES): O=C(c1nc(-c2cnc3[nH]c(-c4ccc(F)cc4)cc3c2)cs1)N1CC(F)(F)C1 [Compound 75, (3,3-difluoroazetidin-1-yl)(4-(2-(4-fluorophenyl)-1H-pyrrolo[2,3-b]-pyridin-5-yl)thiazol-2-yl)-methanone]
- ΔTm at 50 µM (ULK1 kinase domain): 3 °C

Structure (SMILES): FC1(F)CN(c2c(C(F)(F)F)cnc3[nH]c(C4CCOCC4)cc23)C1 [Compound 85, 4-(3,3-difluoroazetidin-1-yl)-2-(tetrahydro-2H-pyran-4-yl)-5-(trifluoromethyl)-1H-pyrrolo[2,3-b]pyridine]
- ΔTm at 50 µM (ULK1 kinase domain): 0.54 °C

Structure (SMILES): FC1(F)CCN(c2c(C(F)(F)F)cnc3[nH]c(C4CCOCC4)cc23)CC1 [Compound 92, 4-(4,4-difluoropiperidin-1-yl)-2-(tetrahydro-2H-pyran-4-yl)-5-(trifluoromethyl)-1H-pyrrolo[2,3-b]pyridine]
- ΔTm at 50 µM (ULK1 kinase domain): 0.88 °C

Structure (SMILES): CN1CCC(c2cc3c(NCCCN4CCCC4)c(C(F)(F)F)cnc3[nH]2)CC1 [Compound 94, 2-(1-methylpiperidin-4-yl)-N-(3-(pyrrolidin-1-yl)propyl)-5-(trifluoromethyl)-1H-pyrrolo[2,3-b]pyridin-4-amine]
- ΔTm at 50 µM (ULK1 kinase domain): 0.76 °C

Structure (SMILES): CN1CCC(c2cc3c(N4CC(F)(F)C4)c(C(F)(F)F)cnc3[nH]2)CC1 [Compound 96, 4-(3,3-difluoroazetidin-1-yl)-2-(1-methylpiperidin-4-yl)-5-(trifluoromethyl)-1H-pyrrolo[2,3-b]pyridine]
- ΔTm at 50 µM (ULK1 kinase domain): 3.09 °C

Structure (SMILES): O=C(NCC1(O)CC1)c1cc(-c2cnc3[nH]c(C4=CCNC4)cc3c2)cs1 [Compound 109]
- IC50 (GST-ULK1): 80 nM

Structure (SMILES): FC(F)(F)c1cnc2[nH]c(C3=CCCNC3)cc2c1NCCN1CCNCC1 [Compound 112]
- IC50 (GST-ULK1): 8 nM

Structure (SMILES): FC(F)(F)c1cnc2[nH]c(C3=CCNC3)cc2c1NCCN1CCNCC1 [Compound 113]
- IC50 (GST-ULK1): 63 nM

Structure (SMILES): FC(F)(F)c1cnc2[nH]c(C3=CCNCC3)cc2c1NCCN1CCNCC1 [Compound 114]
- IC50 (GST-ULK1): 14 nM

Structure (SMILES): FC1(F)CN(c2c(C(F)(F)F)cnc3[nH]c(C4=CCNCC4)cc23)C1 [Compound 115]
- IC50 (GST-ULK1): 81 nM

Structure (SMILES): FC(F)(F)c1cnc2[nH]c(C3=CCCNC3)cc2c1NCCN1CCOCC1 [Compound 116]
- IC50 (GST-ULK1): 201 nM

Structure (SMILES): FC(F)(F)c1cnc2[nH]c(C3=CCNC3)cc2c1NCCN1CCOCC1 [Compound 117]
- IC50 (GST-ULK1): 85 nM

Structure (SMILES): FC(F)(F)c1cnc2[nH]c(C3=CCNCC3)cc2c1NCCN1CCOCC1 [Compound 118]
- IC50 (GST-ULK1): 126 nM

Structure (SMILES): FC(F)(F)c1cnc2[nH]c(C3=CCCNC3)cc2c1NCCCN1CCCC1 [Compound 119]
- IC50 (GST-ULK1): 1600 nM

Structure (SMILES): FC(F)(F)c1cnc2[nH]c(C3=CCNC3)cc2c1NCCCN1CCCC1 [Compound 120]
- IC50 (GST-ULK1): 1210 nM

Structure (SMILES): FC(F)(F)c1cnc2[nH]c(C3=CCNCC3)cc2c1NCCCN1CCCC1 [Compound 121]
- IC50 (GST-ULK1): 320 nM

Structure (SMILES): FC1(F)CN(c2c(C(F)(F)F)cnc3[nH]c(C4=CCCNC4)cc23)C1 [Compound 141]
- IC50 (GST-ULK1): 884 nM

Structure (SMILES): O=C(NCC(F)(F)F)c1cc(-c2cnc3[nH]c(C4=CCN(C5CCC(C(=O)O)CC5)CC4)cc3c2)cs1 (stereo not shown) [compound 142]
- IC50 (GST-ULK1): 88 nM
